Target: human PAD4 (Homo sapiens (Human), UniProt Q9UM07)
Assay: In Vitro PAD4 BAEE Biochemical Assay
Conditions: human PAD4, BAEE substrate; 5 nM PAD4, 2 mM calcium chloride, 3 mM BAEE; geometric mean of multiple experiments
In short: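 Deimination of BAEE substrate (3 mM) measured as ammonia via o-phthalaldehyde–DTT isoindole fluorescence, 405/535 nm. Tag-free bacterially expressed human PAD4 at 5 nM with 2 mM calcium chloride, pH 7.6 MOPS buffer, 30 min compound preincubation then 2 h reaction, both at 25 °C.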

Sequence of human PAD4 (Q9UM07 2-663): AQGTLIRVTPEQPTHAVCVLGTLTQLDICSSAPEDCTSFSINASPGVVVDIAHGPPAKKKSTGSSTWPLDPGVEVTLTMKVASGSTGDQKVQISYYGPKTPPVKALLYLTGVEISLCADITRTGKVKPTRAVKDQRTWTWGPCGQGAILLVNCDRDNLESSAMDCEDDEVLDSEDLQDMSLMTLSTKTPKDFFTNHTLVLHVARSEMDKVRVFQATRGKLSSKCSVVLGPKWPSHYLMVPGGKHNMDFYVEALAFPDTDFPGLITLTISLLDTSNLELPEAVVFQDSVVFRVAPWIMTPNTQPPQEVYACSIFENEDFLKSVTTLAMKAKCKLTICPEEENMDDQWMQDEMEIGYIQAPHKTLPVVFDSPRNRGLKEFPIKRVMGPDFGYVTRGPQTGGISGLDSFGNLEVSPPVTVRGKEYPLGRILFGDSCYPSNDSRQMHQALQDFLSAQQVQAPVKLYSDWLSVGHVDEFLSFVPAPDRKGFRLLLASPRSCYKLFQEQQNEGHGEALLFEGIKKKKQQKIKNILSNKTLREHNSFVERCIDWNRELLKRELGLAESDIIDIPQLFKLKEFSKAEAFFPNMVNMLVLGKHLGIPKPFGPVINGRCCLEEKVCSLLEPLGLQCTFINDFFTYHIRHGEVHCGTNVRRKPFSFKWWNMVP

| IC50 [nM] | SMILES |
| --- | --- |
| 538 | COc1cc(C(=O)N2CCC[C@@H](N)C2)cc2nc(-c3cc4ccc(N5CCCNS5(=O)=O)nc4n3CC3CC3)n(C)c12 [Example 107, (R)-(3-aminopiperidin-1-yl)(2-(1-(cyclopropylmethyl)-6-(1,1-dioxido-1,2,6-thiadiazinan-2-yl)-1H-pyrrolo[2,3-b]pyridin-2-yl)-7-methoxy-1-methyl-1H-benzo[d]imidazol-5-yl) methanone] |
| 5080 | COc1cc(C(=O)N2CC3(CCNC3)C2)cc2nc(-c3cc4ccc(N(C(F)F)S(C)(=O)=O)nc4n3CC3CC3)n(C)c12 [Example 67, N-(1-(cyclopropylmethyl)-2-(7-methoxy-1-methyl-5-(2,6-diazaspiro[3.4]octane-2-carbonyl)-1H-benzo[d]imidazol-2-yl)-1H-pyrrolo[2,3-b]pyridin-6-yl)-N-(difluoromethyl) methanesulfonamide] |
| 90.2 | COc1cc(C(=O)N2C[C@H](N)CCN2C)cc2nc(-c3cc4ccc([C@@H](C)NC(=O)C56CC(F)(C5)C6)nc4n3CC3CC3)n(C)c12 [Example 171, N-((R)-1-(2-(5-((R)-5-amino-2-methylhexahydropyridazine-1-carbonyl)-7-methoxy-1-methyl-1H-benzo[d]imidazol-2-yl)-1-(cyclopropylmethyl)-1H-pyrrolo[2,3-b]pyridin-6-yl)ethyl)-3-fluorobicyclo[1.1.1]pentane-1-carboxamide] |
| 89.7 | COc1cc(C(=O)N2C[C@H](N)CCN2C)cc2nc(-c3cc4ccc([C@@H](C)NC(=O)C5(CF)CC5)nc4n3CC3CC3)n(C)c12 [Example 190, N-((R)-1-(2-(5-((R)-5-amino-2-methylhexahydropyridazine-1-carbonyl)-7-methoxy-1-methyl-1H-benzo[d]imidazol-2-yl)-1-(cyclopropylmethyl)-1H-pyrrolo[2,3-b]pyridin-6-yl)ethyl)-1-(fluoromethyl)cyclopropane-1-carboxamide] |

| SMILES | IC50 [nM] |
| --- | --- |
| COc1cc(C(=O)N2[C@H]3CC[C@@H]2[C@H](N)C3)cc2nc(-c3cc4ccc([C@@H](C)NS(C)(=O)=O)nc4n3CC3CC3)n(C)c12 [Example 243, N-((R)-1-(2-(5-((1R,2R,4S)-2-amino-7-azabicyclo[2.2.1]heptane-7-carbonyl)-7-methoxy-1-methyl-1H-benzo[d]imidazol-2-yl)-1-(cyclopropylmethyl)-1H-pyrrolo[2,3-b]pyridin-6-yl)ethyl)methanesulfonamide] | 52.8 |

Same assay, conditions: recombinant PAD4 5 nM, 2 mM calcium chloride, 3 mM BAEE substrate; geometric mean of multiple experiments

| IC50 [nM] | SMILES |
| --- | --- |
| 79.2 | COc1cc(C(=O)N2C[C@H](N)[C@@H]3CC[C@H]2C3)cc2nc(-c3cc4ccc([C@@H](C)NC(=O)C56CC(C5)C6)nc4n3CC3CC3)n(C)c12 [Example 290, N-((R)-1-(2-(5-((1S,4R,5R)-4-amino-2-azabicyclo[3.2.1]octane-2-carbonyl)-7-methoxy-1-methyl-1H-benzo[d]imidazol-2-yl)-1-(cyclopropylmethyl)-1H-pyrrolo[2,3-b]pyridin-6-yl)ethyl)bicyclo[1.1.1] pentane-1-carboxamide] |

Reference: patent US11878965B2, “Inhibitors of peptidylarginine deiminases” (Gilead Sciences, Inc., priority 2020, dated 2024)
